Results published in a melting point compilation (Tetko et al.).

Row | melting point [°C] | SMILES
1 | 50 to 52 | O=C(O)CCCOc1cccc(Br)c1
2 | 228 to 230 | NC(=O)C1CCN(S(N)(=O)=O)CC1
3 | 64 to 66 | NNC(=O)NC1CC1
4 | 62 to 64 | Cc1ccc(CNCCO)cc1
5 | 194 to 196 | NC(=O)c1c[nH]cn1
6 | 51 to 53 | N#CCC(=O)c1ccccc1F
7 | 258 to 260 | CCCn1c(S)nnc1-c1ccncc1
8 | 182 to 184 | O=C(O)/C=C/c1nccs1
9 | 149 to 151 | Nc1cncc(Cl)n1
10 | 50 to 52 | O=C(NCc1ccccn1)OCC(F)(F)F
11 | 89 to 91 | Fc1ccc(NCc2cccnc2)cc1
12 | 40 to 44 | COCC(C)NC(=O)CC#N (configuration not stated)
13 | 59 to 61 | COc1c(C)cnc(Cn2ccc(N)n2)c1C
14 | 270 to 272 | Cn1c2ccccc2n2c(S)nnc12
15 | 54 to 56 | CC(C)c1ccc(CCNC(=O)CCl)cc1
16 | 61 to 63 | CC1CCC(=CC(=O)O)CC1 (configuration not stated)
17 | 218 to 220 | Nc1ccnc(N2CCCC2)n1
18 | 44 to 46 | Cc1cccc(-c2nc(CCl)no2)c1
19 | 54 to 56 | CC(C)Cn1cnnc1C1CCCN1 (configuration not stated)
20 | 79 to 81 | Cc1cc([N+](=O)[O-])c(S(=O)(=O)Cl)cc1C
21 | 145 to 147 | O=C(NCc1ccco1)n1ccnc1
22 | 157 to 161 | COC(=O)c1noc(C(=O)OC)c1O
23 | 100 to 102 | CC(Cl)C(=O)NC1(C#N)CCCCC1 (configuration not stated)

Row | melting point [°C] | SMILES
24 | 114 to 116 | O=C(Nc1cccc(CO)c1)c1ccccc1
25 | 94 to 96 | O=C(O)c1cccnc1N1CCCCC1
26 | 55 to 60 | COc1ncc(Br)cn1
27 | 157 to 159 | Nn1c(S)nnc1SCc1ccccc1
28 | 239 to 241 | CC(=O)Nc1ccc(C(N)=S)cc1
29 | 209 to 211 | O=C(O)c1ccc2cc[nH]c2n1
30 | 188 to 190 | CC(=O)N1CC=C(c2ccc(O)cc2)CC1
31 | 64 to 66 | NCC1(O)Cc2ccccc2C1
32 | 103 to 105 | Cn1c(=O)n(Cc2ccc(Br)cc2)c(=O)c2ccc(C(F)(F)F)nc21
33 | 203 to 205 | CS(=O)(=O)c1ccc(Br)c(C(=O)O)c1
34 | 284 to 286 | Cc1cc(C(=O)O)c2cnn(C)c2n1
35 | 99 to 101 | Nc1ccnc(Sc2ccccn2)c1
36 | 159 to 161 | NC(CCN1CCOCC1)=NO
37 | 51 to 53 | N#CCN1CCSCC1
38 | 239 to 241 | COc1cc(C)cc2c(C)c(C(=O)O)oc12
39 | 77 to 79 | Cc1cc(C=O)c(C)n1-c1ccnn1C(C)C
40 | 174 to 176 | Cc1oc(-c2ccccc2F)nc1C(=O)O
41 | 194 to 196 | Cc1ncc(C=CC(=O)O)s1
42 | 95 to 97 | COC(=O)c1cc(N)cc(Cl)c1
43 | 125 to 127 | Nc1nonc1-c1ccc(F)cc1
44 | 108 to 110 | CC(=O)Nc1cccc2c1NCCC2
45 | 221 to 223 | CNC(=O)COc1ccc(C(=O)O)cc1OC
46 | 136 to 138 | O=C(O)c1cc(F)cc(S(=O)(=O)Cl)c1

Row | melting point [°C] | SMILES
47 | 150 to 152 | Cc1ccc(CNC(=O)c2ccccc2NC(=O)CCl)cc1
48 | 133 to 135 | Cc1ccc(F)c(NC(=S)NN)c1
49 | 81 to 83 | O=S(=O)(Cl)c1cnn(-c2ccccc2F)c1
50 | 74 to 76 | COC(=O)CC1CCCCC1=NO (configuration not stated)
51 | 162 to 164 | CC1CNc2c(cccc2S(N)(=O)=O)C1 (configuration not stated)
52 | 253 to 255 | CCOc1ccc(NC(=O)c2ccc(NC(=O)CCl)cc2)cc1
53 | 141 to 143 | O=C(Nc1cnccn1)C1CCCNC1 (configuration not stated)
54 | 129 to 131 | OCc1nnc(-c2ccccc2)o1
55 | 243 to 245 | CC(C)(C)Nc1ccc(C(=O)O)cc1S(=O)(=O)NC(C)(C)C
56 | 55 to 57 | CC(C)CC(C)n1nccc1N (configuration not stated)
57 | 279 to 281 | N#CCc1nc2scc(-c3ccccc3)c2c(=O)[nH]1
58 | 148 to 150 | COc1ccc(-c2nnc(Cl)c3ccccc23)cc1
59 | 106 to 108 | O=C(O)C1(c2ccccc2F)CCCC1
60 | 105 to 107 | CC(C)COc1ccc(C(=O)O)cn1
61 | 159 to 161 | Nc1cc(-c2cc(Cl)cc(Cl)c2)[nH]n1
62 | 79 to 81 | O=S(=O)(Cl)c1cnc(Cl)cc1Cl
63 | 130 to 132 | Nc1cc(-c2cccc(Cl)c2)n[nH]1
64 | 62 to 64 | BrCCc1ccc2ccccc2c1
65 | 142 to 144 | OCc1cn(-c2ccc(Cl)cc2)nn1
66 | 141 to 143 | O=C(O)C1CC(=O)N(c2ccccc2Cl)C1 (configuration not stated)
67 | 127 to 129 | NC(=S)NCCc1cccs1
68 | 236 to 238 | O=C(O)c1cc(Cl)c([N+](=O)[O-])[nH]1
69 | 99 to 101 | NC(CN1CCCC1=O)c1ccccc1 (configuration not stated)

Row | melting point [°C] | SMILES
70 | 158 to 162 | O=C(O)c1c(-n2cccc2)sc2c1CCCC2
71 | 189 to 191 | Cc1ccc(S(=O)(=O)Nc2cc(Cl)ccc2O)cc1
72 | 259 to 261 | O=c1[nH]c(CO)nc2scc(-c3ccccc3)c12
73 | 168 to 170 | CC(C)n1ncc2cc(S(N)(=O)=O)ccc21
74 | 137 to 139 | COCCNS(=O)(=O)c1ccc(C)c(C(=O)O)c1
75 | 112 to 114 | O=C(O)c1cccc(Oc2cnccn2)c1
76 | 140 to 142 | CCn1c(S)nnc1-c1ccncc1
77 | 133 to 135 | CCCC(NC(=O)Cc1ccccc1)C(=O)O (configuration not stated)
78 | 214 to 216 | O=c1oc2cc(O)ccc2c2c1CCC2
79 | 69 to 71 | Oc1cccc2ccc(N3CCCCC3)nc12
80 | 163 to 165 | CC(Cl)C(=O)Nc1cccc(S(=O)(=O)N2CCCCC2)c1 (configuration not stated)
81 | 215 to 217 | O=C(Nc1ccc(O)cc1)c1ccccc1
82 | 179 to 181 | O=C(O)c1cc(S(=O)(=O)N2CCOCC2)ccc1N1CCCCC1
83 | 135 to 137 | CN(C)CC(N)=NO
84 | 246 to 248 | O=C(O)C1CCN(C(=O)c2ccc3[nH]ncc3c2)CC1
85 | 110 to 112 | Nc1cccnc1-n1cncn1
86 | 132 to 134 | Cc1cc(NC(C)C)ccc1C(N)=O
87 | 242 to 244 | CC1(C)CCc2[nH]c(=O)c(C(=O)O)cc2C1
88 | 171 to 173 | Nc1n[nH]c2cccc(F)c12
89 | 216 to 220 | COc1ccc(C(=O)Nc2sc3c(c2C(=O)O)CCCC3)cc1
90 | 170 to 172 | CC1(C)C(=O)Nc2ccccc2N1C(=O)CCl
91 | 254 to 256 | COC(=O)c1cc([N+](=O)[O-])c[nH]c1=O
92 | 83 to 85 | CC(CC(=O)O)c1cccc(C(F)(F)F)c1 (configuration not stated)

Row | melting point [°C] | SMILES
93 | 179 to 181 | NNc1nc(-c2ccc(Cl)cc2)no1
94 | 113 to 115 | CC(C)c1ccc(-c2cc(N)on2)cc1
95 | 210 to 212 | Sc1nnc(Nc2cccc(Cl)c2)s1
96 | 190 to 192 | O=C(O)C(CS(=O)(=O)c1ccccc1)N1CCOCC1 (configuration not stated)
97 | 50 to 52 | COC(=O)COc1c(C)cc(C=O)cc1C
98 | 76 to 78 | Cc1nc(CNc2ccc(F)cc2)cs1
99 | 169 to 171 | O=c1[nH]c(-c2ccccc2Br)cs1
100 | 174 to 176 | Cc1cnnc(N)n1
101 | 96 to 98 | Oc1ccc(-c2noc(C3CCCO3)n2)cc1 (configuration not stated)
102 | 92 to 94 | CN(Cc1ccccc1)S(N)(=O)=O
103 | 82 to 84 | CCN(CC)S(=O)(=O)c1ccc(O)c([N+](=O)[O-])c1
104 | 243 to 245 | NC(=O)c1ccsc1NC(=O)CCC(=O)O
105 | 198 to 202 | NC(=O)NC(Cc1c[nH]c2ccccc12)C(=O)O (configuration not stated)
106 | 147 to 151 | Cc1noc(C(C)C)c1C(=O)O
107 | 194 to 196 | O=C1CCC(c2ccccc2)CCN1 (configuration not stated)
108 | 183 to 185 | Nc1nc2ccc(Cl)cn2n1
109 | 132 to 134 | CC(C)COc1cn(-c2ccccc2)nc1C(=O)O
110 | 209 to 211 | O=C(O)CCc1nc2cccc(Cl)c2[nH]1
111 | 55 to 57 | CC1CCc2c(sc3nc(CN4CCOCC4)nc(Cl)c23)C1 (configuration not stated)
112 | 328 to 330 | O=C(O)C1=NN(c2nc3ccccc3[nH]2)C(=O)CC1
113 | 161 to 163 | O=C(O)c1ccc(C(F)(F)F)[nH]c1=O
114 | 86 to 88 | CCOC(=O)c1nn(-c2ccccc2)cc1O
115 | 66 to 68 | COC(=O)c1cc(F)cc(OC)c1N

Row | melting point [°C] | SMILES
116 | 47 to 49 | CCCCOc1ccc(C(C)=O)cc1OC
117 | 72 to 74 | Cc1nc2cc(N)ccc2o1
118 | 96 to 98 | COc1ccc(NC(=O)CC(C)=O)c(OC)c1
119 | 108 to 110 | CC(C)(C)OC(=O)NC1CCN(C2CCNC2)CC1 (configuration not stated)
120 | 52 to 54 | O=Cc1cccc(Cl)c1O
121 | 169 to 171 | CC(=O)N1Cc2ccc(N)cc2C1
122 | 132 to 135 | NC1CCCCC1CO (configuration not stated)
123 | 162 to 164 | CC(=O)Nc1cc(F)c(F)cc1N
124 | 148 to 150 | O=C(CCl)Nc1nnc(C2CC2)o1
125 | 93 to 95 | Cc1cc([N+](=O)[O-])ccc1OCCO
126 | 154 to 156 | NS(=O)(=O)Cc1cccc2cccnc12
127 | 244 to 246 | Oc1cnnc(S)n1
128 | 247 to 249 | CCOC(=O)c1cc2cc(C(=O)O)ccc2[nH]1
129 | 182 to 187 | O=C(CCl)c1ccc(C2CCCCC2)cc1
130 | 117 to 119 | C/C(=N\O)c1sc(C(C)(C)C)nc1C
131 | 150 to 152 | O=C(Nc1ccc(Br)cc1)c1cccnc1Cl
132 | 264 to 266 | N#CC(C#N)=C1Nc2ccccc2N=C1Cl
133 | 160 to 162 | CCc1sc(C(=O)NNC(=O)CCl)cc1C
134 | 208 to 212 | CCOc1ccc(-c2nnc(S)n2N)cc1
135 | 166 to 168 | O=C(O)CSc1ccccc1[N+](=O)[O-]
136 | 64 to 66 | Cc1cc(F)c(S(=O)(=O)Cl)cc1[N+](=O)[O-]
137 | 265 to 267 | O=c1[nH]c(CCl)nc2sc3c(c12)CCCC3

Row | SMILES | melting point [°C]
138 | O=C(c1cc(Br)c[nH]1)C(Cl)(Cl)Cl | 125 to 127
139 | CCC(CC)n1ncc(C(=O)O)c1C | 154 to 156
140 | Cc1cccc(NC(N)=S)c1 | 110 to 112
141 | Nc1nc(CN2CCNCC2)nc2ccccc12 | 213 to 215
142 | O=C(CCl)NC(C1CC1)C1CC1 | 114 to 116
143 | Cn1nccc1C1CCNCC1 | 66 to 68
144 | Cc1cc(C=O)c(C)n1CCN1CCOCC1 | 79 to 81
145 | Clc1ccc(N2CCNCC2)nc1 | 64 to 66
146 | Cc1ccc(NC2=NC(C)(C)CS2)cc1 | 164 to 166
147 | O=Cc1cc2c(cc1O)OCO2 | 114 to 116
